What was measured:
[1] = molecular target: T1, ATP-dependent translocase ABCB1 (Homo sapiens, UniProt P08183); experiment: TP_TRANSPORTER: drug resistance (vinblastine) in HepG2-DR cells; assay type: functional, cell-based
[2] = molecular target: T1, ATP-dependent translocase ABCB1; experiment: TP_TRANSPORTER: drug resistance (vinblastine) in K562-DR cells; assay type: functional, cell-based

T1 sequence (P08183 whole entry): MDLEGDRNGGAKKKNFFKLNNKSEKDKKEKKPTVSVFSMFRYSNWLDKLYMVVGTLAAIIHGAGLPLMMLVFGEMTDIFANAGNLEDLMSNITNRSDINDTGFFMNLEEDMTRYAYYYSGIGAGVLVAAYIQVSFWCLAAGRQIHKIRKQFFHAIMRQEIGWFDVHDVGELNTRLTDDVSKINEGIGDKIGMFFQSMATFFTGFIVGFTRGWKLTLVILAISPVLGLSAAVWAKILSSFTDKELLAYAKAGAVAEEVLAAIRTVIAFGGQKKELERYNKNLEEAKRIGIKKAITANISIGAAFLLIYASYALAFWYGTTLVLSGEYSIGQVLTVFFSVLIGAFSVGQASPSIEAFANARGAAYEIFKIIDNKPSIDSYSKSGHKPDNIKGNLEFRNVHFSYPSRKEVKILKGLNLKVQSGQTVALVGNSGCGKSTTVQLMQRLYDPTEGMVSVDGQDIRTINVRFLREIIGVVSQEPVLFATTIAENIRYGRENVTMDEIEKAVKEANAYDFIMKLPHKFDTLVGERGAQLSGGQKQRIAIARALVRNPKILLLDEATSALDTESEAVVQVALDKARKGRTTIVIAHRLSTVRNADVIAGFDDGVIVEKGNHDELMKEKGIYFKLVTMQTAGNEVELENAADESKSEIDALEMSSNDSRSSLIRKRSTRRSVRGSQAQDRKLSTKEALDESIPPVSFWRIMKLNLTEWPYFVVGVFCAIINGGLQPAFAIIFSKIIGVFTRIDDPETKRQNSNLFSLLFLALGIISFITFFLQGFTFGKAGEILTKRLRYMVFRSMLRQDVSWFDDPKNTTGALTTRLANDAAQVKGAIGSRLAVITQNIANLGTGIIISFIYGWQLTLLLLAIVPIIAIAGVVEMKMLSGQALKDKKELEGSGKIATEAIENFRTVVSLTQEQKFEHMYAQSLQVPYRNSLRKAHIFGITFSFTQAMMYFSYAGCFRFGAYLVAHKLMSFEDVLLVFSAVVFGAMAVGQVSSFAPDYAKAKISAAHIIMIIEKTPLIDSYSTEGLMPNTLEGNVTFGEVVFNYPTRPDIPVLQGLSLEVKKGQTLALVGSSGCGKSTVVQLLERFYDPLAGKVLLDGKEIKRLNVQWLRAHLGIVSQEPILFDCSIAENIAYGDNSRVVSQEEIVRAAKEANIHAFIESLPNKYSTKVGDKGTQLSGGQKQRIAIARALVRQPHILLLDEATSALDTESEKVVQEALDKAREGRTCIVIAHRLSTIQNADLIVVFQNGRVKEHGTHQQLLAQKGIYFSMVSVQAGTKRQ

SMILES: C[C@H](C[C@](O)(CC(=O)O)C1OC1(C)C)C1=C2C[C@H](O)[C@@H]3[C@H](CCC4C(C)(C)C(=O)CC[C@@]43C)[C@@]2(C)CC1 (some centres not stated)
- Activity [1]: inhibitor [+]
- Activity [2]: inhibitor [+]
